From patent US5328922A, “Indole ureas as 5 ht receptor antagonist” (priority 1990, dated 1994)
Counter-ions that a name gives are not always drawn. Like-named read-outs stand apart in the source and are kept apart here.

How the values were obtained:
[1] = biological target: T1, 5-HT1C binding site (Sus scrofa, UniProt K7GSR7); test: [^3 H]-mesulergine binding to pig choroid plexus membranes in vitro
T1 construct: Pooled pig choroid plexi were homogenised; from tissue; host or cells: pig choroid plexus membranes
T1 sequence (K7GSR7 1-457): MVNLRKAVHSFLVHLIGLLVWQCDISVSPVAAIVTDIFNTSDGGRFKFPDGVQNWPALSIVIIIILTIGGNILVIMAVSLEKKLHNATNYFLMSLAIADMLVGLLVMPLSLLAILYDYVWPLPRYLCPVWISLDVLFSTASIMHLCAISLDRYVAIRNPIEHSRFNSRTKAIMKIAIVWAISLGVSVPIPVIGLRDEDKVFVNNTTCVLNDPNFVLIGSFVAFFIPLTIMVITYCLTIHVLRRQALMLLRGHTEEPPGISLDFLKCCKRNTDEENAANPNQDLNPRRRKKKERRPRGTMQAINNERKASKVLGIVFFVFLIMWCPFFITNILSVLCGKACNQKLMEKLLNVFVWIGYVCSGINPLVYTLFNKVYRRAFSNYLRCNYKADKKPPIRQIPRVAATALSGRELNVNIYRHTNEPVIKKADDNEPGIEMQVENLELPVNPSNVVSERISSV
From the text: [^3 H]-mesulergine binding to pig choroid plexus membranes in vitro
(Curzon and Kennett, 1990; Fozard and Gray, 1989) and Alzheimer's Disease (Lawlor, 1989, J. Arch. Gen. Psychiat. Vol. 46 p.542).
The affinity of test drugs for the 5-HT1C binding site can be determined by assessing their ability to displace [^3 H]-mesulergine from 5-HT1C binding sites in pig choroid plexus membranes. The method employed was similar to that of Pazos et al, 1984.
Pooled pig choroid plexi were homogenised in 20 vols of Tris HCl buffer (pH7.4) (containing 4 mM CaCl2 and 0.01% ascorbic acid) and centrifuged at 50,000 g for 15 rain at 4° C. The supernatant was removed and re-centrifuged. This was repeated a further two times with the incubation of the homogenate (37° C. for 15 min) before the final centrifugation. The final pellet was resuspended in 20 vols of buffer and stored at -70° C. until use.
The tissue suspension (50 μl) was incubated with [^3 H]-mesulergine (2 nM) in Tris HCl buffer (pH7.4) at 37° C. (containing 0.01% ascorbic acid, 4 mM CaCl2) and 3×10^-8 M spiperone for 30 minutes. Non-specific binding was measured in the presence of mianserin (10^-6 M). Six concentrations of test drug (10^-9 to 10^-4 M final concentration) were added in a volume of 50 μl. The total assay volume was 500 μl. Incubation was stopped by rapid filtration using a Skatron cell harvester and radioactivity measured by liquid scintillation spectrometry. The IC50 values were determined and the pKi (the negative logarithm of the inhibition constant) calculated from the Cheng Prusoff equation where [formula] wherein: Ki =inhibition constant.
C=concentration of [^3 H]-mesulergine
Kd=Affinity of mesulergine for 5-HT1C binding sites.
Curzon, G. A. and Kennett, G. A. (1990). TIPS, Vol. 11, 181-182. Fozard, J. R. and Gray, J. A. (1989). TIPS, Vol. 10, 307-309. Pazos, A. et al. (1984). Eur. J. Pharmacol., 106, 531-538.

[2] = biological target: T2, 5-HT receptor that has the characteristics of a 5-HT1C receptor (Rattus norvegicus, UniProt P30994); test: Rat stomach fundus: 5-HT1C antagonist action (inhibition of 5-HT-induced contractions); conditions: rat stomach strips; test drug 10^-6 M for 30 mins; 5-HT dose-response; read-out: apparent dissociation constant, KB
T2 construct: from tissue; host or cells: rat stomach fundus strips
T2 sequence (P30994 whole entry): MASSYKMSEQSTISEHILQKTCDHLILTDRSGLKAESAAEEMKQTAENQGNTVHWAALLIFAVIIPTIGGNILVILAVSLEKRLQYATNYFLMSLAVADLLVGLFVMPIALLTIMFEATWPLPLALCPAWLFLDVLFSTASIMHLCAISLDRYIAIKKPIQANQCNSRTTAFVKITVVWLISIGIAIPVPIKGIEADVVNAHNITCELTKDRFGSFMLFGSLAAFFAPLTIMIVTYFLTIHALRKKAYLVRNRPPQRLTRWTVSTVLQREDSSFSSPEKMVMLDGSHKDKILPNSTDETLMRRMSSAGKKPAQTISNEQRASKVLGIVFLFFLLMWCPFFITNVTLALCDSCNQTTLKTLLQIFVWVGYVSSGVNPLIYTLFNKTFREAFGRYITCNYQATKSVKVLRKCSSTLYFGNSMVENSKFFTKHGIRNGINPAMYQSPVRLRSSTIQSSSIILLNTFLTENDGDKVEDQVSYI
Procedure: 5-Hydroxytryptamine (5-HT) induces contractions of the rat stomach fundus through a 5-HT receptor that has the characteristics of a 5-HT1C receptor (Blackburn et al, 1990).
Rat stomach strips (6×4 mm) were suspended under a 4 g tension in 5 ml baths containing Tyrode solution, gassed with a mixture of 95% O2 /5% CO2. After a 1 hour equilibration period, two dose response curves were constructed to 5-HT (final concentrations, 10^-9 to 3×10^-6 M). Test drugs were then incubated at a final concentration of 10^-6 M for 30 mins and another dose-response curve constructed to 5-HT. The apparent dissociation constant of a test drug, KB, can be calculated from the equation where [formula] where B=concentration of the test drug and DR=the dose ratio (the factor by which the concentration of the agonist has to be increased in the presence of the test drug to obtain an identical effect observed in the absence of the test drug).

[3] = Geller-Seifter Procedure (potential anxiolytic properties); format: in vivo, rat; conditions: rats; 30 min before testing; dose levels in the range 5-40 mg/kg p.o.
Procedure: Potential anxiolytic properties are evaluated using the Geller-Seifter procedure based on that originally described by Geller and Seifter, (1960) Psychopharmacologia, 1, 482-492.
Rats are trained on a variable interval 30 sec schedule (VI30) to press a lever in order to obtain food reward. The 5 min sessions of the VI30 schedule alternate with 2-5 min of a schedule (FR5) in which every 5th lever press is followed by presentation of a food pellet paired with a 0.5 sec mild footshock. The total study lasts approximately 30 mins. Rats typically respond with high rates of lever pressing under the VI30 schedule and low response rates under the FR5 `conflict` session. Anxiolytic drugs increase the suppressed response rates of rats in a `conflict` session.
Drugs are administered intraperitoneally or orally to groups of 3-8 rats 30 min before testing.
The results are expressed as the percentage increase in the square root of the total number of lever presses in the FR5 `conflict` session. Square root transformation is necessary to normalise the data for statistical analysis using parametric methods.

[4] = Social Interaction Test (potential anxiolytic properties); format: in vivo, rat; conditions: male rats; p.o. 1 h pretest; doses of 2-40 mg/kg
From the text: Potential anxiolytic properties have been evaluated using the social interaction test based on that described by File (1980 J. Neurosci. Meth., 2, 219). Active social interaction between male rats is usually quantitated by counting interactive behaviours such as following, grooming, sniffing, climbing over or under, biting, mounting and boxing. This behaviour is supressed when the rats encounter each other in an environment which is novel and brightly lit. Under these circumstances anxiolytic drugs will enhance the level of social interaction.
Rats were housed in groups of 8 in a holding room adjacent to the experimental chamber for 8 days. They were then housed singly in the same room for 3 days prior to the experimental day. On the experimental day rats were injected p.o. 1 h pretest with vehicle or drug in pairs at 15 min intervals beginning at 10.00 am. 60 Mins later they were placed with a weight matched pair mate (encountered for the first time) in the social interaction box in a separate room. The box was made of while perspex 54×37×26 cm with no lid. The floor was divided into 24 equal squares and the cage was brightly lit. Active social interaction was scored blind over the next 15 min by remote video monitoring to give total interaction scores. The number of squares crossed by each rat was also scored and summed. […]

[5] = tested on: rat stomach fundus serotonin receptor; conditions: P. Fludzinski et. al., J. Med. Chem. 1986 29 2415-2418; cited from earlier work

## CCc1c(C)n(C)c2ccc(NC(=O)Nc3cccnc3)cc12 [E1, N-(1,2-Dimethyl-3-ethyl-1H-indol-5-yl)-N'-(3-pyridyl)urea hydrochloride]
[1]
  Ki: 25.1 nM
[2]
  Kb: 32 nM

## Cl.Cn1ccc2cc(NC(=O)Nc3cccnc3)ccc21 [E2, N-(1-Methyl-1H-indol-5-yl)-N'-(3-pyridyl)urea hydrochloride]
[1]; [^3 H]-mesulergine 2 nM, pig choroid plexus membranes, 3×10^-8 M spiperone, pH7.4, 37° C., 30 minutes, pKi from IC50 by Cheng Prusoff equation, read-out: [^3 ]-Mesulergine pKi (converted)
  Ki: 158 nM
[2]
  Kb: 100 nM
[3]
  responding in the `conflict` session (percentage increase in square root of total lever presses in FR5): significant increase in responding in the `conflict` session
[4]
  social interaction: significant increase in social interaction

## Cc1c(C)n(C)c2ccc(NC(=O)Nc3cccnc3)cc12 [E3, N-(1,2,3-Trimethyl-1H-indol-5-yl)-N'-(3-pyridyl)urea hydrochloride]
[1]
  Ki: 200 nM
[2]
  Kb: 25 nM

## CCCn1ccc2cc(NC(=O)Nc3cccnc3)ccc21 [E4, N-(1-Propyl-1H-indol-5-yl)-N'-(3-pyridyl)urea oxalate]
[1]
  Ki: 200 nM
[2]
  Kb: 400 nM

## Cn1ccc2c(NC(=O)Nc3cccnc3)cccc21 [E5, N-(1-Methyl-1H-indol-4-yl)-N'-(3-pyridyl)urea hydrochloride]
[1]
  Ki: 200 nM
[2]
  Kb: 250 nM

## Cn1ccc2ccc(NC(=O)Nc3cccnc3)cc21 [E6, N-(1-Methyl-1H-indol-6-yl)-N'-(3-pyridyl)urea hydrochloride]
[1]
  Ki: 316 nM
[2]
  Kb: 170 nM

## CCc1c(C)n(C)c2ccc(NC(=O)Nc3cccc(C(F)(F)F)c3)cc12 [N-(1,2-dimethyl-3-ethyl-1H-indol-5-yl)-N'-(3-trifluoromethylphenyl)urea]
[5]
  selectivity for the rat stomach fundus serotonin receptor: shows selectivity for the rat stomach fundus serotonin receptor
